Measured values reported in article PMC5418359, “Topical Ophthalmic Formulation of Trichostatin A and SurR9-C84A for Quick Recovery Post-alkali Burn of Corneal Haze” (Frontiers in Pharmacology, 2017).

Columns and labels:
rat corneal tissues = settings: for clathrin (conjunctival layer) and claudin (corneal layer) expressions, immunofluorescence: post-NaOH insult
[1] = tested on: rat eyes post-alkali burn
corneal lysate = experiment: Multianalyte ELISA of inflammatory cytokines in corneal lysate; assay type: in vivo, rat
Procedure: The cytokine profiling was performed using the Rat Inflammatory Cytokines & Chemokines Multi-Analyte ELISArray Kit (QIAGEN, USA). Briefly, serial dilutions of the Antigen Standard and the experimental samples were prepared. 50 μL of Assay Buffer was added to each well of the 8-well ELISA strips. Fifty microliters samples and/or standards were added to the appropriate wells of the ELISA strips and incubated for 2 h at room temperature. The ELISA strips were further washed using 350 μL 1 × Washing Buffer thrice. Hundred microliters of Detection Antibody solution was added to the ELISA strips and incubated for 1 h at room temperature. ELISA wells were washed as mentioned above. Hundred microliters of the Avidin–HRP solution was added to all wells and incubated for 30 min at room temperature. ELISA wells were washed as mentioned above. Hundred microliters of Development Solution was added to each well and incubated for 15 min at room temperature in the dark. Hundred microliters of Stop Solution was added to each well. The color changed from blue to yellow. The absorbance at 450 nm was measured within 30 min of stopping the reaction. The estimation of pg/mL of cytokines was performed using the values obtained from antigen standards and a graph was plotted for the cytokine expression with the effect of treatments.

Blood analysis = assay type: in vivo; parameters: HCT / MCH / WBC / RBC / HGB / MCHC: unit not given here; settings: rat blood; for MCV: in fL (unit assumed)
Procedure: The analysis of blood samples was performed directly using the ABX Micros ES 60 (Horiba Medicals). The parameters analyzed included the number of red blood cells (RBC’s), white blood cells (WBC’s), platelets and hemoglobin content. Briefly, 20 μL of the blood sample was acquired in the instrument and the readings were recorded.

cornea = experiment: Mean opacity and mean permeability measurements, rat alkali burn model; assay type: in vivo; settings: for Mean in vitro score / Mean opacity measurement: 1 M NaOH 1 min, topical treatment 40 min; for Predicted irritation potential: rat, in vivo
Procedure: The mean in vivo scores was determined using the mean opacity measurements. The rat eyes were excised carefully and carried to the laboratory in HBSS supplemented with penicillin/streptomycin. The measurement of mean opacity was carried out using an opacitometer which measures the transmission of light through the center of each mounted cornea. The mean permeability score was determined by adding a fluorescent (rhodamine solution) on the anterior side of the holder and the corneas were incubated in a horizontal position for 90 min at 32°C. The medium in the posterior chamber was removed and added to 96 well plates and the OD at 490 nm was read. The readings obtained at OD490 were used to determine the permeability of each treatment with respect to the change in the untreated corneas.

[2] = tested on: conjunctival layer and corneal matrix; experiment: H&E histology of corneal segments, rat alkali burn model; assay type: in vivo; settings: 1 M NaOH 1 min, topical treatment 40 min
Procedure: After the completion of the study, all tissues that required to be examined (eyes, brain, kidneys, liver, spleen, heart and lungs) were isolated. The cornea was carefully separated from the eye without damaging it and washed using phosphate buffer saline (PBS). Tissues were fixed using 4% paraformaldehyde (PF) overnight at 4°C and then washed in PBS. The tissue segments were dehydrated in graded ethanol, embedded in paraffin and 5–7 μm thick sections were cut using a microtome. Sections were collected on poly-lysine coated slides using the Leica cryostat and were fixed immediately in ice-cold acetone. All the sections were stained for haematoxylin–eosin (H&E) for critical analysis.

[3] = tested on: expression of survivin, TGF-beta-1, alpha-SMA and collagen IV in alkali burnt cornea; experiment: Ex vivo RT-PCR dose ranging in alkali burnt rat eyes; settings: 1 M NaOH 1 min, treatment 40 min
Procedure: This procedure was carried out using a previously published protocol ([Lin et al., 2016]). Rat eyes were harvested from humanely killed rats and washed with HBSS. Rat eyes were further incubated with 1 M NaOH for 1 min and then treated with TSA ([…]), SurR9-C84A (0.5, 1.2, and 2.5 mg/kg), pSur/As-Sur ([…]) and empty plasmid (200, 400, and 800 μg/kg) for 40 min. Untreated eyes were maintained as controls. After treatment period, eyes were washed with PBS and total RNA was extracted using the TRIzol® reagent (cat# 15596-026, Thermo Fisher Scientific, Waltham, MA, USA), and complementary DNA (cDNA) was synthesized from RNA using the RevertAid H Minus First Strand cDNA Synthesis Kit (cat# K1631, Thermo Fisher Scientific). Expression of survivin, TGF-beta-1, alpha-SMA and collagen IV was determined by polymerase chain reaction (PCR).

Row | Molecule | alpha-SMA expression, immunofluorescence (rat corneal tissues; confocal microscopy) | survivin expression, immunofluorescence (rat corneal tissues; confocal microscopy) | clathrin (conjunctival layer) and claudin (corneal layer) expressions, immunofluorescence (rat corneal tissues) | Collagen type IV gene expression, qRT-PCR [1] | IL-1 beta gene expression, qRT-PCR [1] | MMP-2 gene expression, qRT-PCR [1] | TGF-beta-1 gene expression, qRT-PCR [1] | IL-1 beta expression, ELISA (corneal lysate) | IL-4 expression, ELISA (corneal lysate) | MCHC (Blood analysis) | RBC (Blood analysis) | WBC (Blood analysis) | MCV (Blood analysis) | Mean in vitro score (cornea) | Mean opacity measurement (cornea) | Predicted irritation potential (cornea) | corneal tissue integrity (conjunctival layer, corneal matrix), H&E [2] | also measured
1 | [Na+].[OH-] [NaOH] | substantially enhanced | slightly increased | substantially lowered | increase | decreased | increase | increase | increase | decrease | 37.51 ± 4.79 | 6.53 ± 2.89 | 3.4 ± 1.19 | 62.5 ± 8.01 | 10.2 ± 0.5^∗∗∗ | 2.5 ± 0.5^∗∗ | Moderate irritation | damage of the conjunctival layer and the corneal matrix | collagen type IV expression, immunofluorescence (rat corneal tissues; confocal microscopy): downregulated; IL-6 gene expression, qRT-PCR [1]: increased; MMP-9 gene expression, qRT-PCR [1]: lowered; TNF-alpha gene expression, qRT-PCR [1]: increased; alpha-integrin 5 gene expression, qRT-PCR [1]: lowered; GMCSF expression, ELISA (corneal lysate): enhanced; IFN-gamma expression, ELISA (corneal lysate): upregulated; IL-6 expression, ELISA (corneal lysate): enhanced; IL-10 expression, ELISA (corneal lysate): significant increase; IL-12 expression, ELISA (corneal lysate): decreased; IL-13 expression, ELISA (corneal lysate): enhanced; Rantes expression, ELISA (corneal lysate): upregulated; TNF-alpha expression, ELISA (corneal lysate): enhanced; increase in alpha-SMA expression, western blot (rat corneal lysates; NaOH insult): 2.7 fold; decrease/downregulation of collagen type IV, western blot (rat corneal lysates; rat, in vivo, iv): 1.1 fold
2 | SurR9-C84A: dominant negative survivin protein (survivin mutant) | substantial decrease | increase | more effective than TSA alone | efficiently downregulated | increase | downregulating | further increase | further increase | increase | 36.61 ± 1.57 | 8.35 ± 0.99 | 1.3 ± 3.18 | 55.66 ± 1.86 | 0.0^∗ | 0.0^∗ | No irritation | recovery of the conjunctival layer | Fibronectin-1 gene expression, qRT-PCR [1]: significantly enhanced; alpha-SMA gene expression, qRT-PCR [1]: significant decrease; survivin gene expression, qRT-PCR [1]: significantly increased; IL-1 alpha expression, ELISA (corneal lysate): significantly increase; IL-2 expression, ELISA (corneal lysate): significantly increased; downregulation of alpha-SMA, western blot (rat corneal lysates; post-NaOH insult): 6.75 fold; enhancement of Fibronectin-1 expression, western blot (rat corneal lysates; post-NaOH insult): 1.97 fold; increase in TGF-beta-1 expression, western blot (rat corneal lysates; post-NaOH insult): 2.4 fold; increase in survivin expression, western blot (rat corneal lysates; post-NaOH insult): 7.7 fold; most effective dosage in inhibiting expression of survivin, alpha-SMA, TGF-beta-1 and collagen IV [3]: 1.2 mg/kg; HCT (Blood analysis): increased the HCT count to normal range; HGB (Blood analysis): 17.1 ± 1.11; MCH (Blood analysis): reduced to normal range; PLT (Blood analysis): increased; HCT (Blood analysis; listed as NaOH–SurR9-C84A): 46.85 ± 4.14; MCH (Blood analysis; listed as NaOH–SurR9-C84A): 20.36 ± 1.42; PLT (Blood analysis; listed as NaOH–SurR9-C84A): 547.16 ± 130
